Data set [1] in a line: Metabolic stability in human liver microsomes assessed as parent compound remaining at 10 uM measured after 60 mins in presence of NADPH by LC/MS/MS analysis. It counts as ADME, Microsome. The settings on record: read-out: Stabilty. On the technique in general: Microsomes from liver hold many membrane-bound enzymes, among them those of drug oxidation.
A short description of data set [2]: Half life in human liver microsomes at 10 uM in presence of NADPH by LC/MS/MS analysis. It counts as ADME, Microsome.
The nature of data set [3]: Metabolic stability in human liver microsomes assessed as parent compound remaining at 10 uM measured after 30 mins in presence of NADPH by LC/MS/MS analysis. It counts as ADME, Microsome. The note with it: read-out: Stabilty.
The nature of the next data set: physchem. The note with it: phosphate buffer, pH 7.4.
Data set [4] in a line: Metabolic stability in human liver microsomes assessed as parent compound remaining at 10 uM measured after 20 mins in presence of NADPH by LC/MS/MS analysis. It counts as ADME, Microsome. The settings on record: read-out: Stabilty.
Data set [5] is described as follows: Metabolic stability in human liver microsomes assessed as parent compound remaining at 10 uM measured after 5 mins in presence of NADPH by LC/MS/MS analysis. It is filed as ADME, Microsome. The note with it: read-out: Stabilty.
Data set [6] in a line: Intrinsic clearance in human liver microsomes at 10 uM incubated for 60 mins in presence of NADPH by LC/MS/MS analysis. It counts as ADME, Microsome. The note with it: read-out: CLH.
The nature of data set [7]: Metabolic stability in human liver microsomes assessed as parent compound remaining at 10 uM measured after 10 mins in presence of NADPH by LC/MS/MS analysis. It counts as ADME, Microsome. The settings on record: read-out: Stabilty.

The term half-life denotes the time in which the quantity being followed falls by half. One may read the solubility as the dissolved amount per volume that the medium holds.

Values after ≈ are worked out from the molar mass of the structure shown. A value given as a limit tells only on which side of the number the result lay.

As to `COc1ccc(/C=C\c2cc(OC)c(OC)c(OC)c2)cc1O` [COMBRETASTATIN A4], the remaining at 1 h, 10 µM in data set [1] amounted to 5.2%. Further, the half-life at 10 µM in data set [2] came out at 13.9 min. Moreover, in data set [3], the remaining at 0.5 h, 10 µM worked out at 17.5%. Further, the solubility at 10 min in the data set “physchem” was found to be 1.04 µg/mL (≈ 3.29 µM). Also, in data set [4], the remaining at 20 min, 10 µM was 37.2%. Also, in data set [5], the remaining at 5 min, 10 µM was found to be 74.1%. The CLint scaled at 10 µM in data set [6] was determined as 89.5 mL/min/kg. The remaining at 10 min, 10 µM in data set [7] worked out at 57.1%.
As for `COc1ccc([C@H]2[C@H](CF)C(=O)N2c2cc(OC)c(OC)c(OC)c2)cc1O`, the remaining at 1 h, 10 µM in data set [1] turned out to be 73%. Also, the half-life at 10 µM in data set [2] was more than 145 min. The remaining at 0.5 h, 10 µM in data set [3] is 90.9%. The same compound gave a solubility at 10 min in the data set “physchem” of 41.1 µg/mL (≈ 105 µM). In addition, in data set [4], the remaining at 20 min, 10 µM is 88.4%. Also, the remaining at 5 min, 10 µM in data set [5] worked out at 85.6%. Besides, the CLint scaled at 10 µM in data set [6] was less than 8.6 mL/min/kg. Besides, the remaining at 10 min, 10 µM in data set [7] was 91.6%.
